# Reference: US20220315554A1, “COMPOUNDS COMPRISING A […] LIGAND AND USE THEREOF” (priority 2019, published 2022)
# How the values were obtained:
# Experiment in all cases: biochemical
# proteases [1] = molecular target: T1, proteases (Homo sapiens, UniProt P42574); conditions: Caspase-3; reference at 100 nM
# T1 construct: BPS Biosciences (contract assay)
# proteases [2] = molecular target: T2, proteases (Homo sapiens, UniProt P55210); conditions: Caspase-7; reference at 1 μM
# T2 construct: BPS Biosciences (contract assay)
# proteases [3] = molecular target: T3, proteases (Hepatitis C virus genotype 2a, UniProt Q99IB8); conditions: serine protease NS3 (a.a. 3-181) from Hepatitis C virus genotype 2a; reference at 100 nM
# T3 construct: BPS Biosciences (contract assay)
# proteases [4] = molecular target: T4, proteases (Hepatitis C virus genotype 1b, UniProt P26663, R1181K); conditions: serine protease NS3 (a.a. 3-181) from Hepatitis C virus genotype 1b (mutant R155K); reference at 100 nM
# T4 construct: BPS Biosciences (contract assay)
# proteases [5] = molecular target: T5, proteases (Hepatitis C virus genotype 1a, UniProt P27958, D1194V); conditions: serine protease NS3 (a.a. 3-181) from Hepatitis C virus genotype 1a (mutant D168 V); reference at 100 nM
# T5 construct: BPS Biosciences (contract assay)
# proteases [6] = molecular target: proteases (Homo sapiens, UniProt P07858); conditions: Cathepsin B; reference at 100 nM
# proteases [7] = molecular target: T6, proteases (Homo sapiens, UniProt P25774); conditions: Cathepsin S; reference at 100 nM
# T6 construct: BPS Biosciences (contract assay)
# proteases [8] = molecular target: T7, proteases (Homo sapiens, UniProt P07711); conditions: Cathepsin L; reference at 1 μM
# T7 construct: BPS Biosciences (contract assay)
# proteases [9] = molecular target: T8, proteases (Homo sapiens, UniProt O60911); conditions: Cathepsin V; reference at 100 nM
# T8 construct: BPS Biosciences (contract assay)
# proteases [10] = molecular target: T9, proteases (Homo sapiens, UniProt Q6V1X1); conditions: DPP8; reference at 200 μM
# T9 construct: BPS Biosciences (contract assay)
# proteases [11] = molecular target: proteases (Homo sapiens, UniProt Q9UHL4); conditions: DPP7; reference at 200 μM
# proteases [12] = molecular target: T10, proteases (Homo sapiens, UniProt P08253); conditions: Matrix metalloprotease 2; reference at 100 nM
# T10 construct: BPS Biosciences (contract assay)
# proteases [13] = molecular target: T11, proteases (Homo sapiens, UniProt P03956); conditions: Matrix metalloprotease1; reference at 1 μM
# T11 construct: BPS Biosciences (contract assay)
# proteases [14] = molecular target: T12, proteases (Homo sapiens, UniProt P14780, Q279R); conditions: 0.1 µM
# T12 construct: BPS Biosciences (contract assay)
# proteases [15] = molecular target: T13, proteases (Homo sapiens, UniProt Q12884); conditions: FAP; reference at 100 nM
# T13 construct: BPS Biosciences (contract assay)
# proteases [16] = molecular target: T14, proteases (Homo sapiens, UniProt Q14790); conditions: Caspase-8; reference at 100 nM
# T14 construct: BPS Biosciences (contract assay)
# proteases [17] = molecular target: T15, proteases (Homo sapiens, UniProt P55212); conditions: Caspase-6; reference at 1 μM
# T15 construct: BPS Biosciences (contract assay)
# proteases [18] = molecular target: T16, proteases (Homo sapiens, UniProt Q9UBX1); conditions: Cathepsin F; reference at 1 μM
# T16 construct: BPS Biosciences (contract assay)
# proteases [19] = molecular target: T17, proteases (Homo sapiens, UniProt P54252); conditions: Ataxin3; reference at 10 μM
# T17 construct: BPS Biosciences (contract assay)
# proteases [20] = molecular target: T18, proteases (Homo sapiens, UniProt P15374); conditions: Ubiquitin carboxy-terminal hydrolase L3; reference at 10 nM
# T18 construct: BPS Biosciences (contract assay)
# proteases [21] = molecular target: T19, proteases (Homo sapiens, UniProt P40818); conditions: Ubiquitin carboxy-terminal hydrolase 8; reference at 1 μM
# T19 construct: BPS Biosciences (contract assay)
# proteases [22] = molecular target: T20, proteases (Homo sapiens, UniProt P45974); conditions: Ubiquitin carboxy-terminal hydrolase 5; reference at 1 μM
# T20 construct: BPS Biosciences (contract assay)
# proteases [23] = molecular target: T21, proteases (Homo sapiens, UniProt P54578); conditions: Ubiquitin carboxy-terminal hydrolase 14; reference at 100 nM
# T21 construct: BPS Biosciences (contract assay)
# proteases [24] = molecular target: T22, proteases (Homo sapiens, UniProt O75604); conditions: Ubiquitin carboxy-terminal hydrolase 2; reference at 1 μM
# T22 construct: BPS Biosciences (contract assay)
# proteases [25] = molecular target: T23, proteases (Homo sapiens, UniProt Q14694); conditions: Ubiquitin carboxy-terminal hydrolase 10; reference at 1 μM
# T23 construct: BPS Biosciences (contract assay)
# proteases [26] = molecular target: T24, proteases (Homo sapiens, UniProt Q8N6M0); conditions: Deubiquitinase OTUD6B; reference at 1 μM
# T24 construct: BPS Biosciences (contract assay)
# proteases [27] = molecular target: T25, proteases (Homo sapiens, UniProt P09936); conditions: Ubiquitin carboxy-terminal hydrolase L1; reference at 100 nM
# T25 construct: BPS Biosciences (contract assay)
# proteases [28] = molecular target: T26, proteases (Homo sapiens, UniProt Q93009); conditions: Ubiquitin carboxy-terminal hydrolase 7; reference at 1 μM
# T26 construct: BPS Biosciences (contract assay)
molecule,measurement,setting,value
COC[C@@H]1CCCN1S(=O)(=O)c1ccc2c(c1)C(=O)C(=O)N2 [Caspase 3/7 Inhibitor I],Percentage inhibition (%) Reference,proteases [1],89%
same,Percentage inhibition (%) Reference,proteases [2],92%
CC(C)(C)OC(=O)N[C@H]1CCCCC/C=C\[C@@H]2C[C@@]2(C(=O)NS(=O)(=O)C2CC2)NC(=O)[C@@H]2C[C@@H](OC(=O)N3Cc4cccc(F)c4C3)CN2C1=O [Denoprevir],Percentage inhibition (%) Reference,proteases [3],98%
same,Percentage inhibition (%) Reference,proteases [4],90%
same,Percentage inhibition (%) Reference,proteases [5],94%
CC(C)C[C@H](NC(=O)[C@H]1O[C@@H]1C(=O)O)C(=O)NCCCCN=C(N)N [E-64],Percentage inhibition (%) Reference,proteases [6],97%
same,Percentage inhibition (%) Reference,proteases [7],91%
same,Percentage inhibition (%) Reference,proteases [8],97%
same,Percentage inhibition (%) Reference,proteases [9],83%
N#Cc1ccc(NCCNCC(=O)N2N=CCC2C#N)nc1 (stereo not shown) [KR62436],Percentage inhibition (%) Reference,proteases [10],96%
same,Percentage inhibition (%) Reference,proteases [11],83%
COc1ccc(S(=O)(=O)N(CC(=O)NO)CC(C)C)cc1 [NNGH],Percentage inhibition (%) Reference,proteases [12],95%
same,Percentage inhibition (%) Reference,proteases [13],87%
same,Percentage inhibition (%) Reference,proteases [14],92%
N#C[C@@H]1CC(F)(F)CN1C(=O)CNC(=O)c1ccnc2ccccc12 [SP-13786],Percentage inhibition (%) Reference,proteases [15],100%
Caspase 8 Inhibitor I,Percentage inhibition (%) Reference,proteases [16],87%
same,Percentage inhibition (%) Reference,proteases [17],94%
Cystatin C,Percentage inhibition (%) Reference,proteases [18],74%
Ub-Aldehyde,Percentage inhibition (%) Reference,proteases [19],77%
same,Percentage inhibition (%) Reference,proteases [20],95%
same,Percentage inhibition (%) Reference,proteases [21],73%
same,Percentage inhibition (%) Reference,proteases [22],84%
same,Percentage inhibition (%) Reference,proteases [23],96%
same,Percentage inhibition (%) Reference,proteases [24],91%
same,Percentage inhibition (%) Reference,proteases [25],82%
same,Percentage inhibition (%) Reference,proteases [26],97%
same,Percentage inhibition (%) Reference,proteases [27],92%
same,Percentage inhibition (%) Reference,proteases [28],95%
